Legend:
[1] = test system: organisms associated with periodontal disease; details: cited from earlier work
[2] = dog, in vivo
Description: Therefore, a study to evaluate four different minocycline periodontal formulations relative to determining minocycline levels in crevicular fluid was conducted in a dog model. The study utilized beagle dogs with surgically created "chronic" intrabony periodontal defects. This model entails the extraction of the two lower fourth premolars and the induction of surgically created intrabony defects at the mesial surface of the first molars and distal surface of the third premolars.
In sequence, the defects were created as follows: First, the lower fourth premolars were extracted, sockets were allowed to heal for one month, and dogs received a full mouth scaling and tooth cleaning. […] Dogs were monitored for an additional four weeks.
For evaluation of crevicular levels of minocycline, dogs were placed under general anesthesia, and the various formulations were administered into the periodontal pockets associated with the created defects. […] The strip was then removed, and the relative amount of fluid was determined by a Periotron 6000 instrument. […]
Strips were assayed for minocycline by a microbiological technique that involves use of the minocycline-susceptible bacterium, Bacillus cereus. […] Zones of inhibited bacterial growth were plotted, and the quantity of minocycline present was determined by comparison with zones obtained with minocycline solutions of known concentration. […]

Which “MIC's for organisms associated with periodontal disease” value [1] does the source give for `CN(C)c1ccc(O)c2c1C[C@H]1C[C@H]3[C@H](N(C)C)C(O)=C(C(N)=O)C(=O)[C@@]3(O)C(O)=C1C2=O` [minocycline, 7-dimethylamino-6-deoxy-6-demethyltetracycline] here?
The value was 0.05 to 1.56 µg/mL.

And the “Periods for which minimum inhibitory concentrations (MIC's) can be achieved” value [2]?
The value was “up to two”.
